Data from PMC10447463, “Data-mining unveils structure–property–activity correlation of viral infectivity enhancing self-assembling peptides” (Nature Communications, 2023).
Like-named read-outs stand apart in the source and are kept apart here.

Experiments:
[1] = tested on: HIV-1 infection of TZM-bl cells; experiment: HIV-1 infectivity enhancement assay, β-galactosidase luminescence; format: cell-based; settings: for Rel-to EFC / n-fold to virus: Fig S8 panels B, D; for Rel-to EFC: infectivity enhancement relative to EF-C; for Log10 Inf. rel. to EF-C: log10 of HIV-1 infection of TZM-bl cells relative to EF-C, Fig S15 source data, asymmetric std dev errors
[2] = Turbidity, derived count rate of scattered light; format: physicochemical; settings: for Log Count Rate: log of derived count rate; for Count Rate: turbidity
How it was run: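 Samples: 1 mg/mL in PBS pH 7.4 (from DMSO), 1 d at RT, then diluted in 1 mM KCl immediately before measurement. Triplicates, two independent runs averaged.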

[3] = Zeta-potential measurement; format: physicochemical; settings: for Zeta-pot. / mV: zeta potential of peptide, Fig S15 source data
How it was run: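 In this measurement, peptides aggregated for a day at RT in phosphate-buffered saline (pH 7.4, 1 mg/mL) are diluted into 1 mM potassium chloride, and the electrophoretic mobility is translated into zeta potential by Smoluchowski's relation.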

[4] = Feb2021, 1.3 µM value relative to virus only (0 µM)
[5] = Feb2021, Log10 of infectivity relative to EF-C
[6] = Feb2021, n-fold enhancement relative to EF-C
[7] = Feb2021, n-fold infectivity relative to EF-C
[8] = Feb2021, unrounded values of the 1.3 µM column
[9] = Feb2021 run, infectivity n-fold relative to virus alone
[10] = Feb2021 run, log10 of infectivity relative to EF-C
[11] = Feb2021 run, n-fold infectivity relative to EF-C
[12] = infectivity n-fold relative to virus alone
[13] = infectivity class (low / medium / high) of each library peptide, main list in c1-c6, same classes repeated in sub-lists of sequences containing the hydrophobicity/charge patterns P+,H0,P+,H0,P0,H0,P0, P+,H0,P0,H0,P0,H0,P0, P+,H0,P0,H0
[14] = Fig S8 panels B, D, derived count rate of scattered light
[15] = category 1 or 0 from count rate, key not given
[16] = derived count rate of scattered light, mean, std deviation in next column
[17] = derived count rate of scattered light, mean, std deviation in separate column
[18] = infectivity class (low / medium / high) of the peptide in the sequence-pattern analysis, Fig. S22-A4, class limits not given
[19] = Feb2021, log10 of infectivity relative to EF-C

Substance	n-fold to virus (Feb2021) [1, 4]	Log10 of Rel to EFC (Feb2021) [1, 5]	Rel-to EFC (Feb-2021) [1, 6]	Rel-to EFC (Feb-2021) [1, 7]	Absolute Infectivity / RLU /s (Feb2021) [1, 8] [RLU /s]	n-fold to virus (Feb2021) [1, 9]	Log10 of Rel to EFC (Feb2021) [1, 10]	Rel-to EFC (Feb-2021) [1, 11]	infectivity [1, 13]	Log10 Inf. rel. to EF-C [1]	Zeta Count Rate Category ([2]; category 1/0, no key printed)	Zeta Count Rate Category [2, 15]	Zeta Count Rate / kcps [2, 16] [kcps]	Zeta Count Rate / kcps [2, 17] [kcps]	Zeta category ( +1 = if > 4 mV;-1 = if < -4 mV; 0 = -4mV to 4 mV) [3]	Zeta category ( +1 = if > 4 mV;-1 = if < -4 mV; 0 = -4mV to 4 mV) ([3]; category from zeta potential)	Zeta Pot. / mV ([3]; mean, Std Zeta in next column) [mV]	Zeta Pot. / mV ([3]; mean, Std in separate column) [mV]	Zeta-pot. / mV [3] [mV]	infectivity [1, 18]	other results
QCKAKAQA [CK24]	1.061	-1.598	0.02526	0.02526	806.7	1.061	-1.598	0.02526	low	-1.598	1	1	1319.1	1319.1	0 (0 = -4mV to 4 mV)	0 (0 = -4mV to 4 mV)	0.674	0.674	0.674	–	Rel-to EFC [1]: 0.02526; n-fold to virus [1, 12]: 1.0614; Log Count Rate ([2]; Fig S8 panels B, D): 3.12; Count Rate [2, 14]: 1319.1
KFKFKFQF [TG18]	–	-0.09726	0.7993	0.7993	–	–	–	–	–	-0.09726	–	1	1036	–	1 (+1 = if > 4 mV)	1 (+1 = if > 4 mV)	15.2	–	15.2	high	Absolute Infectivity / RLU /s (Feb2021) ([1]; Feb2021, figures match the 1.3 µM column): 18696.66667 RLU /s; n-fold to virus (Feb2021) ([1]; Feb2021, infectivity relative to virus only): 33.59; Zeta Count Rate Category ([2]; category 1 / 0, no key given): 1; Zeta Count Rate / kcps ([2]; derived count rate of scattered light): 1036 kcps; Zeta Pot. / mV [3]: 15.2 mV
KIKIKIQINMWQ [VH9]	–	-0.1048	0.7855	–	–	–	–	–	high	-0.1048	–	1	1603.1	–	–	1 (+1 = if > 4 mV)	13.1	–	13.1	high	–
KAKAQANM [TM152]	0.3782	-2.046	0.009	0.009	496.7	0.3782	-2.046	0.009	low	-2.046	0	0	42.5	42.5	0 (0 = -4mV to 4 mV)	0 (0 = -4mV to 4 mV)	-2.62	-2.62	-2.62	low	–
KWKWQW [KB3]	0.6105	–	–	0.01453	386.7	–	–	–	low	-1.838	1	–	1545	–	1 (+1 = if > 4 mV)	–	7.55	–	7.55	–	Log10 of Rel to EFC (Feb2021) [1, 19]: -1.838; Rel-to EFC [1]: 0.01453; n-fold to virus [1, 12]: 0.6105; Log Count Rate ([2]; Fig S8 panels A, C, asymmetric log errors): 3.189; Log Count Rate ([2]; Fig S8 panels B, D): 3.189; Count Rate [2, 14]: 1544.87
CEIEIQI [AR2/ TM142]	1.173	–	–	0.02791	633.3	–	–	–	low	-1.554	0	–	51.97	–	-1 (-1 = if < -4 mV)	–	-26.1	-26.1	-26.1	–	Log10 of Rel to EFC (Feb2021) [1, 19]: -1.554; Rel-to EFC (Feb-2021) ([1]; infectivity enhancement relative to EF-C (=1), Feb2021 run): 0.02791; n-fold to virus (Feb2021) ([1]; infectivity n-fold relative to virus only, Feb2021 run): 1.173; Log10 of Rel to EFC (Feb2021) ([1]; log10 of infectivity relative to EF-C, Feb2021 run): -1.554; Zeta Count Rate / kcps ([2]; derived count rate from zeta measurement, mean): 51.97 kcps; Zeta Count Rate Category ([2]; key not given): 0
MKIKIQINMWQ [TM52]	17.6	-0.378	0.4188	0.4188	12786.66667	17.6	-0.378	0.4188	medium	-0.378	1	1	1475	1475	1 (+1 = if > 4 mV)	1 (+1 = if > 4 mV)	10.8	10.8	10.8	–	–
CSISIQINM [TM145]	8.332	–	–	0.1983	10943.33333	–	–	–	medium	-0.7027	1	–	3291	–	-1 (-1 = if < -4 mV)	–	-19.4	–	-19.4	–	Log10 of Rel to EFC (Feb2021) [1, 19]: -0.7027
RGDKIKIQI [MG14]	–	-1.805	0.01566	–	–	0.6579	-1.805	0.01566	low	-1.805	–	1	298.1	298.1	0 (0 = -4mV to 4 mV)	0 (0 = -4mV to 4 mV)	-0.899	-0.899	-0.899	–	–
RGDKIKIQIC [MG7/CN1]	–	-0.07993	0.8319	–	–	34.95	-0.07993	0.8319	–	-0.07993	–	1	7509	7509	1 (+1 = if > 4 mV)	1 (+1 = if > 4 mV)	16.5	16.5	16.5	high	–
